Assay results taken from EP1124556B1, “USE OF OPTICALLY PURE (R)-TOFISOPAM FOR TREATING AND PREVENTING ANXIETY DISORDERS” (priority 1998, dated 2000).
Where “and” joins values, the source holds several entries; their conditions need not be identical. Identical values can stand only once.

How the values were obtained:
benzodiazepine receptor = settings: cited from earlier work
Male Long Evans rats = test: Head-twitch response assay (potentiation of 5-MeODMT-induced head-twitches) for anxiolytic activity; type: in vivo; parameters: Score: scale not given here; settings: for Head Twitch: one hour before interperitoneal 3mg/kg 5-MeODMT, number of head-twitches over 1-5 minute period post injection, individual rats No. 1-3; for Score: group of 3 rats
Procedure: Dry preparations of tofisopam, R-tofisopam or S-tofisopam were dissolved in 2% Tween 80/5% DMSO for oral administration in a blind assay. Diazepam (Sigma, U.S.A.) was similarly dissolved in DMSO (Merck, Germany), distilled water and Tween 80 (Wako Pure Industries, Ltd., Japan).
Male Long Evans rats provided by animal breeding center of MDS Panlabs Taiwan, Ltd., were used. Space allocation for animals was as follows: 45 x 23 x 15 cm for 6 rats. Rats were housed in APEC® (Allentown Gaging, Allentown, NJ 08501, U.S.A.) cages in a positive pressure isolator (NuAire® , Mode: Nu-605, airflow velocity 50± 5 ft/min, HEPA Filter). All animals were maintained in a controlled temperature (22°C - 24°C) and humidity (60% - 80%) environment with 12 hours light dark cycles for at least one week in MDS Panlabs Taiwan laboratory prior to being used. Free access to standard lab chow for rats (Fwusow Industry Co., Limited, Taiwan) and tap water was granted. All aspects of this work including housing, experimentation and disposal of animals were performed in general accordance with the International Guiding Principles for Biomedical Research Involving Animals (CIOMS Publication No. ISBN 92 90360194, 1985).
Moser, P.C., "The Effect of Novel Axiolytics on the Head-Twitch Response in Mice" British J. Pharmacol Suppl. 99:248P (1990) . Based on those assays, test substances were administered orally to the rats one hour before interperitoneal injection of 3mg/kg 5-MeODMT. The number of head-twitches over a 1-5 minute period post injection were recorded (Table 1).

[1] = in vivo; cited from earlier work
patients = settings: cited from earlier work
site II of HSA = site II of HSA (Homo sapiens, UniProt P02768); settings: cited from earlier work
[2] = Conformer interconversion in solution; type: physicochemical
Procedure: The enantiomers of tofisopam were resolved by chiral chromatography. For example, tofisopam (42.8mg dissolved in acetonitrile) was loaded onto a Chirobiotic V column (ASTEC, Whippany, NJ). Elution of the compounds with MTBE/ACN 90/10 (v/v), 40ml/min, was monitored at 310nm, 2mm path. The R(+) enantiomer was the first compound to elute from the column. The R(+) enantiomer was collected, dried and stored for use in biological assays. R(-)-tofisopam ("A" ' ) , S (-/+) tofisopam ("B" and "B' ") , and residual R(+)-tofisopam ("A") co-eluted and was collected in a subsequent fraction (e.g., FIG. 1, fraction 2). Approximately 20% of the R(+)-tofisopam in fraction 1 is converted into R(-)-tofisopam if left in solution for 24 hours. A 80/20 stable equilibrium (R+/R-) was observed between the two conformers in MTBE/ACN (90/10) solution at room temperature.

[3] = cited from earlier work
dopamine (D2L) receptor = dopamine (D2L) receptor (Homo sapiens, UniProt P14416); test: Dopamine receptor binding (preliminary results)
dopamine (D2L) receptor, sequence (P14416 whole entry): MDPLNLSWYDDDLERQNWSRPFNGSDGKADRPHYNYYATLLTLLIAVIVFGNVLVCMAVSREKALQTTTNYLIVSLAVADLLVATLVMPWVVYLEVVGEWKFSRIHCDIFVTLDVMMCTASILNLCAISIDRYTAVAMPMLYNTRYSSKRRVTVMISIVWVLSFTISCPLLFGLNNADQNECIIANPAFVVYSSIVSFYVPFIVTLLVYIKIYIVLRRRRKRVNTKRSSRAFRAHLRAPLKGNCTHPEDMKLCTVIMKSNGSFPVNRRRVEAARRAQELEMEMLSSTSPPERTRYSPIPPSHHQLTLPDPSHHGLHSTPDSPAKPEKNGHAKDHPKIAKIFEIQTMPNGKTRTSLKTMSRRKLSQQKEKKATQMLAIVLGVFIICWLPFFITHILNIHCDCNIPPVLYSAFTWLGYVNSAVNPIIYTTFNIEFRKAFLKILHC

site II of HSA, sequence (P02768 25-609): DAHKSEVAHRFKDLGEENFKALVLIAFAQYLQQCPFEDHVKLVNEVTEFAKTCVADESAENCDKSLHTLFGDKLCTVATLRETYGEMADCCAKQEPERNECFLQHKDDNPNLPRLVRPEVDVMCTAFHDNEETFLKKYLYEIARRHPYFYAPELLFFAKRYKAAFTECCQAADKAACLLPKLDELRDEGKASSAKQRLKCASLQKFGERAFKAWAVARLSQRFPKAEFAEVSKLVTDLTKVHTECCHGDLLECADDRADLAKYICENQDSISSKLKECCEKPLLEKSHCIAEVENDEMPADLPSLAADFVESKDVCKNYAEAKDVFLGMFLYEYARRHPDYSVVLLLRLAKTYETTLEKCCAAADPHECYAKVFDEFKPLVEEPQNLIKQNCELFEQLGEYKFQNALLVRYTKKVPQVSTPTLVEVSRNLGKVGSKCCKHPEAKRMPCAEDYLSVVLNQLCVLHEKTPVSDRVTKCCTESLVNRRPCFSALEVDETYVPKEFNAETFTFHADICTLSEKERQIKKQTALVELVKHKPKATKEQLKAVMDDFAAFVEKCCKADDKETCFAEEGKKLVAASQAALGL

For `CCC1C(C)=NN=C(c2ccc(OC)c(OC)c2)c2cc(OC)c(OC)cc21` (racemic) [tofisopam, 1-(3,4-dimethoxy-phenyl) - 4-methyl-5-ethyl-7,8-dimethoxy-5H-2,3-benzodiazepine], the “binding to the benzodiazepine receptor” value (benzodiazepine receptor) is given as “does not bind to the benzodiazepine receptor”, the “binding of BDZs to their receptors” value (benzodiazepine receptor; in vivo and in vitro, after acute and chronic treatment) is given as “enhances the binding of BDZs to their receptors” and the “Head Twitch” value (Male Long Evans rats; PO 30 mg/kg) is given as 0. The Score (Male Long Evans rats; PO 30 mg/kg) was 0, the “anticonvulsive, muscle relaxant or sedative effects” value [1] was “not have anticonvulsive, muscle relaxant or sedative effects” and the “patients reporting side effects during treatment” value (patients; double-blind study, 4 weeks, 57 outpatients with anxiety and depression) was “twenty-one”. The anxiolytic effect (patients; multicenter study, 325 patients, 3 weeks, 150-1300 mg/day) was “effective anxiolytic”.

In the case of `N[C@@H](Cc1c[nH]c2ccccc12)C(=O)O` [L-Tryptophan], the “affinity for site II of HSA relative to the other enantiomer” value (site II of HSA) is given as “about 100 times”.

With `CC[C@H]1C(C)=NN=C(c2ccc(OC)c(OC)c2)c2cc(OC)c(OC)cc21` [R(+)-tofisopam] the “stable equilibrium (R+/R-)” value ([2]; MTBE/ACN (90/10) solution at room temperature) was 80/20 and the “converted into R(-)-tofisopam” value ([2]; left in solution for 24 hours) was “Approximately 20%”.

For `CN1C(=O)CN=C(c2ccccc2)c2cc(Cl)ccc21` [Diazepam], the “Head Twitch” value (Male Long Evans rats; PO 10 mg/kg) was 5 and 1 and 9 and the Score (Male Long Evans rats; PO 10 mg/kg) was 2.

In the case of `O=C1CCC(N2C(=O)c3ccccc3C2=O)C(=O)N1` (racemic) [racemic thalidomide], the “solubility relative to its separate isomers” value [3] is given as “ten times less soluble”.

With `CC[C@@H]1C(C)=NN=C(c2ccc(OC)c(OC)c2)c2cc(OC)c(OC)cc21` [S-tofisopam] the “Head Twitch” value (Male Long Evans rats; PO 30 mg/kg) was 0 and the Score (Male Long Evans rats; PO 30 mg/kg) was 0.

In the case of `CC[C@H]1C(C)=NN=C(c2ccc(OC)c(OC)c2)c2cc(OC)c(OC)cc21` [R-tofisopam, R-1-(3,4-dimethoxyphenyl)-5-ethyl-7,8-dimethoxy-4-methyl-5H-2,3-benzodiazepine], the “side effects related to binding to the dopamine (D2L) receptor” value (dopamine (D2L) receptor) is reported as “cannot manifest side effects related to binding to the dopamine (D2L) receptor”, the “Head Twitch” value (Male Long Evans rats; PO 30 mg/kg) is reported as 0 and 2 and 1 and the Score (Male Long Evans rats; PO 30 mg/kg) is reported as 1.
